Read-outs that look alike come from different tables or passages of the source.

For data set [1], the system named is FADD−/− Jurkat cells. In words: Inhibition of TNF-induced programmed necrosis of FADD deficient Jurkat cells (Cell Titer-Glo viability). Type of data set: cell-based. To be noted: FADD−/− Jurkat cells. The source says: (§1) The adopted biological assay protocol was: the effect of compounds on programmed necroptosis of TNF-induced FADD (Fas-Associated Death Domain) deficient Jurkat cells and L929 cells.
(§2) In order to verify the inhibitory effect of the compounds of the present invention on programmed cell necrosis at the cellular level, cell types that is closely related to the RIP1 pathway, namely FADD deficient Jurkat cells (human peripheral blood leukemia T cell strain) and L929 cells, were selected. Two different stimulation methods were used: tumor necrosis factor (TNFα) was used alone, or TNFα was used in combination with mitochondria-derived cysteine aspartate activator (SMAC) SM164. Cells viability was calculated by detecting chemiluminescence values, thereby obtaining the biological activity of the compound on the inhibition of programmed cell necrosis.
(§3) Methods: FADD deficient Jurkat cells: FADD deficient Jurkat cells (human peripheral blood leukemia T cell line) were cultured in vitro. After growing to the logarithmic growth phase, the cells were collected, centrifuged at 1000 rpm for 5 min, the supernatant was discarded, and the cell concentration was adjusted to 2.5×10^5/mL. Cells were seeded into 384-well plates, 40 μl per well. 5 μL of SM164 (50 nM) diluted in cell culture medium and 5 μL of each compound were added to the corresponding wells. After pretreatment at 37° C. for 1 h, 5 μL of TNFα (50 ng/mL) diluted in cell culture medium was added to each well of the stimulation group, and 5 μL of the culture medium was added to the control group. The plate was cultured in a cell incubator (37° C., 5% CO2) for 14 h, and […] of Cell Titer-Glo solution was added to each well, then incubated for 30 min at room temperature, and intracellular ATP level was measured by detecting luminescence. The unstimulated DMSO control wells were taken as 100% cell viability. L929 cells: The L929 cells (mouse fibroblasts) were cultured in vitro, digested and diluted to 6.25×10^4/ml, and the cells were seeded into 384-well plates, 40 μl per well. The plate was placed in a cell incubator (37° C., 5% CO2) for 12 hours. 5 μL of SM164 (500 nM) diluted in cell culture medium and 5 μL of each compound were added to the corresponding wells. After pretreatment at 37° C. for 1 h, 5 μL of TNFα (500 ng/mL) diluted in cell culture medium was added to each well of the stimulation group, and 5 μL of the culture medium was added to the control group. After the plate was cultured for 14 h in a cell incubator (37° C., 5% CO2), 15 μl of Cell Titer-Glo solution was added to each well. The plate was incubated at room temperature for 30 min, and intracellular ATP level was measured by detecting luminescence. The unstimulated DMSO control wells were taken as 100% cell viability. EC50 values of the compounds were calculated using Prism Graphpad statistical software.

Data set [2] in a line: Liver microsomal stability test, human. Type of data set: in vitro ADME. The note with it: human liver microsomes, NADPH, 37° C.; for half-life at 1 µM: human, liver microsomes, read-out: T1/2 (min) Human. The text has this:
(§4) The adopted biological test protocol was: testing the half-life of the compound in human- or mouse-derived liver microsomes.
(§5) Liver microsomes contain many enzymes involved in drug metabolism, especially cytochrome P-450, and therefore it is one of the major tissues involved in drug metabolism in living organisms. There are some correlations between the stability of the compound in liver microsomes and the pharmacogenetic stability thereof in vivo. Therefore, the relative stability of compounds in vivo can be roughly predicted by testing the half-life of different compounds in human- or mouse-derived liver microsomes. The specific methods were as follows:
(§6) Methods: 0.75 μL of 0.5 mM samples (compounds to be tested and control verapamil), 9.38 μL of 20 mg/mL liver microsomes (Human and Mouse) were taken and added to 239.88 μL PBS (on ice), and divided into 30 μL/tube samples respectively. The samples were incubated at 37° C. in a constant temperature water bath for 5 min, and then all samples were taken out. At zero-time, control group was added with 90 μL of ice acetonitrile first, and then added with 15 μL of 3 mM NADPH solution sequentially, and incubated at 37° C. in a constant temperature water bath. The corresponding samples were taken out after 5 min, 10 min, 20 min, 30 min and 60 min, respectively, and quenched by adding 90 μL of ice acetonitrile. All samples were centrifuged at 10000 rpm for 10 min, and the supernatants were taken and placed in a liquid phase vial waiting for LC-MS analysis.

The nature of data set [3]: Liver microsomal stability test, mouse. The note with it: mouse liver microsomes, NADPH, 37° C.; for half-life at 1 µM: mouse, liver microsomes, read-out: T1/2 (min) Mouse. Type of data set: in vitro ADME.
Source text: as §4, §5, §6

Data set [4] has as its system L929 cells. In words: Inhibition of TNF-induced programmed necrosis of L929 cells (Cell Titer-Glo viability). In kind it is cell-based, mouse.
Source text: as §1, §2, §3

The mark [5] stands for this setting: Homo sapiens, Jurkat, 14 h, stimulated with TNFα + SM164, read-out: EC50 (μM) FADD−/− Jurkat cells (human) TNFα + SM164.
Where [6] appears, read: Homo sapiens, Jurkat, stimulated with TNFα alone, read-out: EC50 (μM) FADD−/− Jurkat cells (human) TNFα.
Setting [7] is: Mus musculus, L929, L929 cells, stimulated with TNFα + SM164, read-out: EC50 (μM) L929 cells (mouse) TNFα + SM164.
Setting [8] is: Mus musculus, L929, L929 cells, stimulated with TNFα alone, read-out: EC50 (μM) L929 cells (mouse) TNFα.
Setting [9] is: stimulated with TNFα + SM164, read-out: EC50 (μM) FADD−/− Jurkat cells (human) TNFα + SM164.
The mark [10] stands for this setting: L929 cells, stimulated with TNFα + SM164, read-out: EC50 (μM) L929 cells (mouse) TNFα + SM164.
The mark [11] stands for this setting: L929 cells, stimulated with TNFα alone, read-out: EC50 (μM) L929 cells (mouse) TNFα.

For the molecule `Nc1ncnc2c1ncn2-c1ccc(CNC(=O)c2cn(Cc3ccccc3)cn2)cc1` [ZSQ-21-13], the values for the EC50 in data set [1] (setting [5]) and in data set [1] (setting [6]) were 39 nM and 42.7 nM, respectively. Further, the half-life at 1 µM in data set [2] stood at 577 min; in data set [3], 99 min.

Turning to `Cn1ncc(C(=O)NCc2ccc(-n3ccc4c(N)ncnc43)cc2)c1Cc1ccccc1` [QY-10-39, N-(4-(4-amino-7H-pyrrolo[2,3-d]pyrimidine-7-yl)benzyl)-5-benzyl-1-methyl-1H-pyrazole-4-carboxamide], the EC50 in data set [1] (setting [5]) turned out to be 2.95 nM; in data set [1] (setting [6]), 0.07 nM; in data set [4] (setting [7]), 0.0961 µM; in data set [4] (setting [8]) it was 0.01 µM. Further, the half-life at 1 µM in data set [3] amounted to 25.7 min.

Turning to `Nc1ncnc2c1ncn2-c1ccc(CN2CCc3cn(Cc4ccccc4)nc3C2=O)cc1` [QY-9-50], the EC50 in data set [1] (setting [5]) was found to be 12.1 nM; in data set [1] (setting [6]), 0.191 nM; in data set [4] (setting [7]), 2.73 µM; in data set [4] (setting [8]), 1.39 µM. Besides, the results for the half-life at 1 µM in data set [2] and in data set [3] were 86.6 min and 116 min, respectively.

On to `Nc1ncnc2c1ncn2-c1ccc(CNC(=O)c2ccc(Cl)n2Cc2ccccc2)cc1` [ZSQ-21-18], for which the EC50 in data set [1] (setting [5]) stood at 80.6 nM; in data set [1] (setting [6]), 6.57 nM. Besides, the values for the half-life at 1 µM in data set [2] and in data set [3] were 8.6 min and 30.1 min, respectively.

As to `CCn1nc(C(=O)NCc2ccc(-n3cnc4c(N)ncnc43)cc2)cc1Cc1ccccc1` [QY-9-34], the EC50 in data set [1] (setting [5]) is 3.52 nM; in data set [1] (setting [6]), 0.416 nM; in data set [4] (setting [7]), above 10 µM; in data set [4] (setting [8]), 8.36 µM. Moreover, the half-life at 1 µM in data set [2] stood at 14.7 min; in data set [3], 13.9 min.

Consider `CNC(=O)c1ccc2c(c1)ncn2-c1ccc(CNC(=O)c2cc(Cc3ccccc3)on2)cc1` [QY-6-16, 5-Benzyl-N-(4-(5-(methylcarbamoyl)-1H-benzo[d]imidazol-1-yl)benzyl) isoxazol-3-formamide], for which the EC50 in data set [1] (setting [5]) was 113 nM; in data set [1] (setting [6]), 8.1 nM; in data set [4] (setting [7]), 3.35 µM; in data set [4] (setting [8]), 2.14 µM. For the same molecule, the half-life at 1 µM is 21.7 min in data set [2] and 24.8 min in data set [3].

For the molecule `Cn1ncc(C(=O)NCc2ccc(-n3cnc4cc(C(=O)NCCN5CCOCC5)ccc43)cc2)c1Cc1ccccc1` [QY-11-68B], the EC50 was found to be 2.96 nM in data set [1] (setting [5]), 0.696 nM in data set [1] (setting [6]), 0.0834 µM in data set [4] (setting [7]) and 0.0205 µM in data set [4] (setting [8]). Also, the half-life at 1 µM in data set [3] came out at 34.7 min.

Turning to `CNC(=O)c1ccc2c(c1)ncn2-c1ccc(CNC(=O)c2nnn(Cc3ccccc3)n2)cc1` [ZSQ-13-36], the EC50 in data set [1] (setting [5]) turned out to be 150 nM; in data set [1] (setting [6]), 24 nM; in data set [4] (setting [7]) it was 4.31 µM; in data set [4] (setting [8]), 1.11 µM. Besides, the half-life at 1 µM in data set [2] and in data set [3] was 99 min throughout.

Take `CNC(=O)c1ccc2c(c1)ncn2-c1ccc(CN2CCc3cn(Cc4ccccc4)nc3C2=O)cc1` [QY-8-7]: the EC50 was 37.8 nM in data set [1] (setting [5]), 10.8 nM in data set [1] (setting [6]), above 10 µM in data set [4] (setting [7]) and 3 µM in data set [4] (setting [8]). In addition, the half-life at 1 µM in data set [2] is 46.2 min; in data set [3], 12.2 min.

As for `CCn1nc(C(=O)NCc2ccc(-n3cnc4cc(C(=O)NC)ccc43)cc2)cc1Cc1ccccc1` [XHJ-4-36], the EC50 in data set [1] (setting [5]) is 42.8 nM; in data set [1] (setting [6]), 5.91 nM; in data set [4] (setting [7]) it was above 10 µM; in data set [4] (setting [8]) it was 0.0107 µM. Further, the half-life at 1 µM in data set [2] was determined as 46.2 min; in data set [3], 10.7 min.

Regarding `Cn1ncc(C(=O)NCc2ccc(-n3cnc4c(N)ncnc43)cc2)c1Cc1ccccc1` [QY-11-78], the EC50 in data set [1] (setting [9]) was determined as 0.689 nM; in data set [1] (setting [6]), 0.036 nM; in data set [4] (setting [10]) it was 0.0232 µM; in data set [4] (setting [11]) it was 0.00987 µM. Further, the “T1/2 (min) Human” value in data set [2] came to 12.6 min. Also, the “T1/2 (min) Mouse” value in data set [3] was determined as 23.9 min.

Turning to `Cn1nc(C(=O)NCc2ccc(-n3cnc4c(N)ncnc43)cc2)cc1Cc1ccccc1` [QY-8-43, N-(4-(6-amino-9H-purin-9-yl)benzyl)-5-benzyl-1-methyl-1H-pyrazole-3-carboxamide], the EC50 in data set [1] (setting [9]) stood at 17.7 nM; in data set [1] (stimulated with TNFα alone, read-out: EC50 (μM) FADD−/− Jurkat cells (human) TNFα), 2.85 nM; in data set [4] (setting [10]) it was 0.152 µM; in data set [4] (setting [11]) it was 0.0111 µM. The half-life at 1 µM was 38.5 min in data set [2] and 23.9 min in data set [3].

Take `Nc1ncnc2c1ccn2-c1ccc(CN2CCc3cn(Cc4ccccc4)nc3C2=O)cc1` [QY-9-41]: the EC50 in data set [1] (setting [5]) was 234 nM; in data set [1] (setting [6]), 21.5 nM; in data set [4] (setting [7]) it was above 10 µM; in data set [4] (setting [8]), above 10 µM. The half-life at 1 µM stood at 38.5 min in data set [2] and 36.5 min in data set [3].

Regarding `CN1CCN(CCNC(=O)c2ccc3c(c2)ncn3-c2ccc(CNC(=O)c3cnn(C)c3Cc3ccccc3)cc2)CC1` [QY-11-69B], the EC50 was 6.33 nM in data set [1] (setting [5]), 0.984 nM in data set [1] (setting [6]), 0.00108 µM in data set [4] (setting [7]) and 0.000563 µM in data set [4] (setting [8]). Besides, the half-life at 1 µM in data set [2] was found to be 43.3 min; in data set [3] it was 46.2 min.

Turning to `CNC(=O)c1ccc2c(c1)ncn2-c1ccc(CC(=O)NCc2c[nH]c3ccccc23)cc1` [QY-5-35, 1-(4-(2-(((1H-indole-3-yl)methyl)amino)-2-oxoethyl)phenyl)-N-methyl-1H-benzo[d]imidazol-5-formamide], the EC50 in data set [1] (setting [5]) was above 10000 nM; in data set [1] (setting [6]), 2490 nM; in data set [4] (setting [7]), above 10 µM; in data set [4] (setting [8]), above 10 µM.

Regarding `CCn1nc(C(=O)NCc2ccc(-n3ccc4c(N)ncnc43)cc2)cc1Cc1ccccc1` [QY-9-33], the EC50 in data set [1] (setting [5]) was 1040 nM; in data set [1] (setting [6]) it was 3.77 nM; in data set [4] (setting [7]), above 10 µM; in data set [4] (setting [8]), above 10 µM. Moreover, the half-life at 1 µM in data set [2] is 9.6 min; in data set [3], 11.2 min.

Turning to `C[C@H](NC(=O)c1c(Cl)nn(C)c1Cc1ccccc1)c1ccc(-n2cnc3c(N)ncnc32)cc1` [QY-13-29], the EC50 is 0.318 nM in data set [1] (setting [5]), 0.0916 nM in data set [1] (setting [6]), 0.000462 µM in data set [4] (setting [7]) and 0.000317 µM in data set [4] (setting [8]).

The values above are taken from patent US20230331707A1, “PROGRAMMED CELL NECROSIS INHIBITOR, PREPARATION METHOD THEREFOR, AND USE THEREOF” (Shanghai Institute of Organic Chemistry, Chinese Academy of …, priority 2020, published 2023).
